According to article PMC7261172, “Peptides containing the PCNA interacting motif APIM bind to the β-clamp and inhibit bacterial growth and mutagenesis” (Nucleic Acids Research, 2020):
In brackets after ≈: the same amount, converted by molar mass. Like-named read-outs stand apart in the source and are kept apart here.

Columns and labels:
E. coli MG1655 [1] = format: cell-based, Escherichia coli; conditions: Mueller-Hinton Broth, 5 × 10^5 CFU/ml, 24 h, 37°C; average of ≥3 independent biological experiments
Method: (§1) Briefly, bacterial suspension in Mueller-Hinton Broth was adjusted to 0.5 McFarland and diluted to 5 × 10^5 CFU/ml. The suspension (0.1 ml) was seeded in polypropylene microtiter plates (Greiner), 5 × 10^4 CFU/well. APIM-peptides were added as 10% of the total volume. Initial inoculums were quantified by seeding on agar for verification of the estimated CFU/mL. After 24 hours (h) incubation at 37°C, the microtiter plates were inspected for visible growth.

E. coli BL21 [2] = format: cell-based, Escherichia coli; conditions: Mueller-Hinton Broth, 5 × 10^5 CFU/ml, 24 h, 37°C; average of ≥3 independent biological experiments
Method: as §1

E.coli β-clamp = target: T1, E.coli β-clamp (Escherichia coli, UniProt P0A988); assay: Microscale thermophoresis (MST) β-clamp binding
T1 construct: made in house
T1 sequence (P0A988 whole entry): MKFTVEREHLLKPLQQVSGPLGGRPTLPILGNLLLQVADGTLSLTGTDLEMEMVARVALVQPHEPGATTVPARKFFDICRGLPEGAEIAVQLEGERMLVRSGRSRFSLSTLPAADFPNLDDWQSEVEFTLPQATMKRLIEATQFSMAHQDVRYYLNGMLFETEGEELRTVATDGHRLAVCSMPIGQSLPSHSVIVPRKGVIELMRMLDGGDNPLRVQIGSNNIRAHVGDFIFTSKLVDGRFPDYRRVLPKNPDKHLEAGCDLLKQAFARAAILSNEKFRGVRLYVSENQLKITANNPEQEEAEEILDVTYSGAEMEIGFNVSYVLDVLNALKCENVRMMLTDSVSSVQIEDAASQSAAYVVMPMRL
Method: Purified E.coli β-clamp ([49]) was labeled using the RED-Maleimide Labelling Kit (NanoTemper Technologies, GmbH) according to the manufacturer's instructions applying a concentration of 20 μM protein at room temperature. The ligands, cell penetrating APIM-peptides, were dissolved and diluted in supplemented Microscale thermophoresis (MST) buffer (50 mM Tris–HCl pH 7.5, 150 mM NaCl, 10 mM MgCl2) with 2% fetal bovine serum and incubated for 10 min in room temperature. Series of 1:1 dilutions (16×), producing ligand concentrations ranging from 500 μM to 15 nM, were made. Each ligand solution was further diluted 1:1 with fluorescent labeled β-clamp (diluted in MST buffer, 3 nM) and incubated for 10 min. Fluorescence was measured for each protein-ligand sample using a Monolith NT.115 instrument (20% MST power and 100% LED power) and Monolith NT Standard Treated Capillaries (both NanoTemper Technologies, GmbH). To calculate the KD’s, fluorescence signals were plotted and analyzed using the supplemented software (NT Analysis software version 1.5.41 and MO.affinity analysis version 2.2.4, NanoTemper Technologies). Denaturation with SD-buffer (4% sodium dodecyl sulphate and 40 mM DTT) and re-measurement of total fluorescence confirmed that the observed change in fluorescence was due to ligand binding event.

E. coli MG1655 [3] = assay: Rif^R mutagenicity assay, added cell penetrating peptides; format: cell-based, Escherichia coli; conditions: for Mutation frequency, added peptides: spontaneous, E. coli MG1655, cell penetrating peptide 20 μM, average ± SEM, RWLVK n = 11, RFSLK n = 4, RWLK n = 7, R11 n = 5, control 10.5 ± 2.2
Method: (§2) The rifampicin resistance (Rif^R) mutagenicity assay was performed as described in ([50]) with some modifications. Briefly, E. coli BL21 expressing peptide variants were induced with (IPTG) (1 mM) at OD600 = 0.3–0.4 and cultured at 37°C, for 2 h before harvested. Bacteria from large culture volumes (up to 50 ml) were plated in order to obtain ∼100 Rif^R colonies per dish. The anti-mutagenic effect of cell penetrating APIM-peptides in E. coli MG1655 was done by adding 20 μM peptide at OD600 = 0.01, and the cells were cultured for 30 min. Next, the cells were pelleted and washed with PBS before UV-irradiated in (50 μl) PBS (2 mJ UVC/cm^2), re-suspended in 2.5 ml LB and cultured in 37°C for 2 h before plating on LB plates with and without Rif (100 μg/ml). The number of Rif^R colonies/ total CFU was determined after 1 and 2 days, respectively. Significance was calculated by using a two-tailed, paired, students t-test. Gentamicin resistance (Gen^R) was examined using a gentamicin sensitive clinical isolate of S. epidermidis. […] The cultures were grown in a shaking incubator (37°C) and were re-inoculated (1:100) every 24 h in fresh TSB and supplements. The cultures were plated on blood agar plates with and without gentamicin (10 mg/l) every day for 4 days, and the frequency of Gen^R colonies was determined by calculating the number of Gen^R colonies/total CFU.

S.epidermidis (MRSE) = format: cell-based, Staphylococcus epidermidis; conditions: 24 h
Method: as §1

E. coli BL21 [4] = assay: Overexpression (viability) assay; format: cell-based, Escherichia coli; conditions: IPTG 1 mM; 2 and 8 h after induction; peptide without cell penetrating part (MD-APIM-GILQSTLA); Figure 1D, Suppl. S1A
Method: A stop codon is found in the multiple cloning site after the NcoI/NheI site. The sequence over-expressed is MD-APIM-[…].
Induction was performed using isopropyl β-D-1-thiogalactopyranoside (IPTG) (1 mM) at OD600 = 0.3 - 0.4. Bacterial growth was measured by OD600 or the number of colony-forming units (CFU) per ml.

E. coli BL21 [5] = assay: Rif^R mutagenicity assay, overexpressed peptides; format: cell-based, Escherichia coli
Method: as §2

S.aureus ATCC 29213 = assay: microbe, parasite or virus in culture; format: cell-based, Staphylococcus aureus
Method: as §1
(§3) Determination of minimal inhibitory concentrations (MICs) for S. aureus was done at Statens Serum Institute, Copenhagen, Denmark.

S.aureus FDA486 = assay: microbe, parasite or virus in culture; format: cell-based, Staphylococcus aureus
Method: as §1, §3

β-clamp = conditions: peptide:β-clamp 100:5 μM (RWLVK, RALVK octamers) or 50:20 μM (Pol III peptide); 298 K, pH 7.4
Method: All NMR spectra were recorded in a standard 5 mm NMR tube at 298 K in 20 mM NaH2PO4, 100 mM NaCl, pH 7.4, 0.25 mM DSS, 10% D2O on a Bruker AVANCE III 800-MHz (^1H) spectrometer equipped with a room temperature probe. Free induction decays were transformed and analyzed in Topspin (Bruker Biospin) and the aromatic region assigned.

S.aureus (MRSA) 43484 = format: cell-based, Staphylococcus aureus
Method: as §1, §3

S.aureus FusA88799 = format: cell-based, Staphylococcus aureus; conditions: n = 3
Method: as §1, §3

[6] = tested on: E. coli MG1655 WT and TLS deletion mutant cells; assay: Rif^R mutagenicity assay in WT and TLS deletion strains; format: cell-based, Escherichia coli; conditions: peptide 20 μM
Source text: S. aureus: ATCC 29213, FDA486, methicillin-resistant S. aureus strain (MRSA) 43484 and FusA88779; S. epidermidis: clinical isolates (including one gentamicin sensitive strain and several multidrug-resistant strains) from Department of Microbiology, St. Olavs University Hospital, Trondheim, Norway, kindly provided by professor Kåre Bergh; Escherichia coli: strains DH5α, BL21 (RIPL) DE3 (Novagen), K12 (MG1655) wild type (WT) and TLS deletion strains (ΔPol II^3, ΔPol IV^1, ΔPol V^1, ΔPol II/IV^3, ΔPol II/V^3, ΔPol IV/V^2 and ΔPol II/IV/V^3). ^1 Keio collection, ^2 generated by Prof Magnar Bjørås’ group, UiO and ^3prepared as described ([43]). Briefly, polB was inactivated in E. coli MG1655 WT, ΔPol IV, ΔPol V and ΔPol IV/V using JW0059:: polB. A phage stock (T4GT7) diluted in T4 buffer was added to the JW0059::polB culture, incubated and plated on LB agar plates. The lysate was harvested and added to 2 ml T4 buffer and 0.2 ml CHCl3 (T4GT7 lysate). The mixture was centrifuged, and supernatant stored at 4°C over 20 μl CHCl3. 0.5 ml overnight culture of the recipient cells was re-suspended in 1 ml of T4 buffer and aliquoted. The T4GT7 lysate (10^−1, 10^−2, 10^−3 and 10^−4 dilutions) was added to the aliquots, incubated for 25 minutes (min) at room temperature and plated on LB-agar plates with kanamycin. Colonies obtained were re-streaked twice to obtain a pure culture. Kanamycin resistance cassettes replacing the deleted polB genes were removed by an FLP-recombinase expressed by pCP20 plasmid.
as §2

[7] = tested on: mutant β-clamps (H148K, M362D, V151A, P363D, P242D, V247F); assay: SPR analysis, immobilized mutant β-clamps; format: binding, Escherichia coli; conditions: Figure 2B
Method: (§4) The experiment was performed with Biacore S200 (GE Healthcare), at 25°C with a flowrate of 30 μl/min. Purified WT and mutant β-clamp protein were immobilized by amine coupling on CM5 Series S sensor chips (GE Healthcare).
(§5) Octamer peptides containing APIM motifs (underlined) [sequence] and [sequence] were diluted in running buffer (PBS P+ buffer: 20 mM phosphate buffer pH 7.4, 3 mM KCl, 137 mM NaCl, 0.05% surfactant P20) at 4, 8, 16, 32, 64 and 128 μM, and analyzed by single-cycle mode. Six consecutive injections of alternating running buffer or peptide in running buffer, with an association phase of 120 seconds (s) followed by a dissociation phase of 60 s and a final dissociation phase of 600 s, were run for each β-clamp protein variant. The running buffer series were used as blanks together with the signal from the reference channels for double-reference subtraction. After each series of six injections, the sensor chip was washed with a 120 s regeneration injection of 1 M NaCl followed by a 120 s injection of running buffer. The sensorgrams were processed (reference subtracted) with Biacore S200 Evaluation Software Version 1.1 (GE Healthcare) and normalized according to the immobilized level.

WT β-clamp = assay: SPR analysis, immobilized WT β-clamp; format: binding, Escherichia coli; conditions: 4-128 μM peptide, single-cycle mode, 25°C, PBS P+ pH 7.4; Figure 2A
Method: as §4, §5

[8] = Mueller-Hinton Broth, 5 × 10^5 CFU/ml, 37°C, average of ≥3 independent biological experiments
[9] = molar form of the μg/ml MIC (RWLVK MW = 3674 Da, ciprofloxacin MW = 313 Da), n = 3
[10] = molar form of the μg/ml MIC, n = 3

Ac-MDRWLKWKKKRKIRRRRRRRRRRR-NH2 [RWLK]
Minimal Inhibitory Concentration (MIC) E. coli MG1655 (E. coli MG1655 [1]): 12 µM
Minimal Inhibitory Concentration (MIC) E. coli BL21 (E. coli BL21 [2]): 6 µM
KD for the β-clamp (MST) (E.coli β-clamp; cell penetrating peptides, MST buffer with 2% fetal bovine serum, initial in vitro binding experiments, bounds given): no binding was detected
Mutation frequency, added peptides (E. coli MG1655 [3]): 7.7 ± 3.3 Rif^R/10^8 CFU
Minimal Inhibitory Concentration (MIC) S.epidermidis (MRSE) (S.epidermidis (MRSE); [8]): 4 µM

MD-RWLK- GILQSTLA [RWLK (overexpressed)]
Effect of peptide overexpression on bacterial growth (CFU/ml relative to uninduced culture; OD600) (E. coli BL21 [4]): did not inhibit bacterial growth
Effect of overexpression on the mutation frequency (E. coli BL21 [5]; E. coli BL21, spontaneous): did not affect the mutation frequency
Mutation frequency, overexpressed peptides (E. coli BL21 [5]; spontaneous, E. coli BL21, IPTG 1 mM, 2 h, average ± SEM, RWLVK n = 5, RFSLK n = 5, RWLK n = 6, control 2.5 ± 0.4): 3.8 ± 1.2 Rif^R/10^8 CFU

MD-RALVK- GILQSTLA [RALVK (overexpressed)]
Effect of peptide overexpression on bacterial growth (CFU/ml relative to uninduced culture; OD600) (E. coli BL21 [4]): did not inhibit bacterial growth

O=C(O)c1cn(C2CC2)c2cc(N3CCNCC3)c(F)cc2c1=O [Ciprofloxacin, reference compound]
MIC (S.aureus ATCC 29213; Staphylococcus aureus, ATCC29213, Mueller-Hinton Broth, 5 × 10^5 CFU/ml, 24 h, 37°C, visible growth, same result in three biological replicates (n = 3), read-out: Minimal Inhibitory Concentration (MIC) S.aureus ATCC 29213): 0.5 µg/mL (≈ 1.51 µM)
Minimal Inhibitory Concentration (MIC) S.aureus ATCC 29213 (S.aureus ATCC 29213; [9]): 1.5 µM
MIC (S.aureus FDA486; Staphylococcus aureus, FDA486, Mueller-Hinton Broth, 5 × 10^5 CFU/ml, 24 h, 37°C, visible growth, n = 3, read-out: Minimal Inhibitory Concentration (MIC) S.aureus FDA486): 0.25 µg/mL (≈ 0.754 µM)
Minimal Inhibitory Concentration (MIC) S.aureus FDA486 (S.aureus FDA486; [10]): 0.8 µM

Ac-MDAWLVKW
Binding to β-clamp by 1D 1H NMR (line broadening, chemical shift or intensity change) (β-clamp): could not detect any binding

Ac-MDRWLVKWKKKRKIRRRRRRRRRRR-NH2 [RWLVK]
Minimal Inhibitory Concentration (MIC) S.aureus (MRSA) 43484 (S.aureus (MRSA) 43484; 43484, 24 h): 10 µg/mL
Minimal Inhibitory Concentration (MIC) S.aureus (MRSA) 43484 (S.aureus (MRSA) 43484; [10]): 3 µM
Minimal Inhibitory Concentration (MIC) S.aureus FusA88799 (S.aureus FusA88799; Mueller-Hinton Broth, 5 × 10^5 CFU/ml, 24 h, 37°C, visible growth): 10 µg/mL
Minimal Inhibitory Concentration (MIC) S.aureus FusA88799 (S.aureus FusA88799; molar form of the μg/ml MIC): 3 µM
Effect on mutation frequency after UV-damage in all Pol V containing strains ([6]; UV 2 mJ/cm^2, Figure 4C): reduced the mutation frequency
Effect on mutation frequency after UV-irradiation in the ΔPol IV/V strain ([6]; UV 2 mJ/cm^2, Figure 4C): reduction in the mutation frequency
Effect on spontaneous mutation frequency in wild type (WT) ([6]; n = 8–10, Figure 4C): significantly reduced
Effect on mutation frequency in the TLS deficient ΔPol II/IV/V strain ([6]; under any conditions (spontaneous and UV)): No reduction of mutation frequency
Effect on spontaneous mutation frequency in the ΔPol II/V strain ([6]; Figure 4C): increased mutation frequency
Minimal Inhibitory Concentration (MIC) E. coli MG1655 (E. coli MG1655 [1]): 11 µM
Minimal Inhibitory Concentration (MIC) E. coli BL21 (E. coli BL21 [2]): 5 µM
Kd (E.coli β-clamp): < 50 µM
Effect on UV-induced mutation frequency (E. coli MG1655 [3]; E. coli MG1655, peptide 20 μM, 2 mJ UVC/cm^2, Figure 4A): reduced the mutation frequency
Mutation frequency, added peptides (E. coli MG1655 [3]): 5.9 ± 2.3 ** Rif^R/10^8 CFU
Minimal Inhibitory Concentration (MIC) S.aureus ATCC 29213 (S.aureus ATCC 29213; ATCC 29213, 24 h): 10 µg/mL
Minimal Inhibitory Concentration (MIC) S.aureus ATCC 29213 (S.aureus ATCC 29213; [9]): 3 µM
Minimal Inhibitory Concentration (MIC) S.aureus FDA486 (S.aureus FDA486; FDA486, 24 h): 10 µg/mL
Minimal Inhibitory Concentration (MIC) S.aureus FDA486 (S.aureus FDA486; [10]): 3 µM
Minimal Inhibitory Concentration (MIC) S.epidermidis (MRSE) (S.epidermidis (MRSE)): 3 µM

Ac-MDRALVKWKKKRKIRRRRRRRRRRR-NH2 [RALVK]
Minimal Inhibitory Concentration (MIC) E. coli MG1655 (E. coli MG1655 [1]): 9 µM
Minimal Inhibitory Concentration (MIC) E. coli BL21 (E. coli BL21 [2]): 5 µM
Kd (E.coli β-clamp; cell penetrating peptides, MST buffer with 2% fetal bovine serum, initial in vitro binding experiments, bounds given, read-out: KD for the β-clamp (MST)): > 750 µM
Minimal Inhibitory Concentration (MIC) S.epidermidis (MRSE) (S.epidermidis (MRSE); [8]): 3 µM

Ac-MDRWLVKW [octamer peptide containing APIM, without the cell penetrating part]
Binding of peptide to all β-clamp variants (SPR) ([7]; H148K, M362D, V151A, P363D, P242D, V247F versus WT): reduced ability to bind
Reduced binding of peptide to β-clamp V247F (SPR) ([7]; β-clampV247F versus WT): ~50%
Binding to β-clamp by 1D 1H NMR (line broadening, chemical shift or intensity change) (β-clamp): visual line broadening
Binding of octamer peptide to WT β-clamp (SPR) (WT β-clamp): bound stronger
